Data published in article PMC11314129, “Synthesis, Computational Study, and In Vitro α-Glucosidase Inhibitory Action of Thiourea Derivatives Based on 3-Aminopyridin-2(1H)-Ones” (Molecules, 2024).
“Also recorded” adds a separate entry of the source.

What was measured:
[1] = biological target: T1, α-glucosidase from Saccharomyces cerevisiae (Saccharomyces cerevisiae, UniProt P53341); experiment: biochemical; assay type: biochemical; conditions: for Inhibitory Activity of Test Compounds at a Concentration of 15 mM Against the α-Glucosidase Enzyme (%) / IC50 (mM): mean ± standard error of the mean; for Inhibitory Activity of Test Compounds at a Concentration of 15 mM Against the α-Glucosidase Enzyme (%): triplets; for IC50 (mM): from graph of enzyme activity vs concentration; for inhibition at 15000 µM: read-out: Inhibitory Activity of Test Compounds at a Concentration of 15 mM Against the α-Glucosidase Enzyme (%)
T1 construct: purchased Sigma-Aldrich
Procedure: Antidiabetic activity was assessed by the degree of the inhibition of α-glucosidase activity by the test substances.
The study of the α-glucosidase activity inhibition degree by the test compounds was performed using a standard method with minor modifications.
Antidiabetic activity was assessed by the degree of inhibition of α-glucosidase activity by the test substances. The α-glucosidase enzyme determines the extent to which glucose enters the bloodstream from the gastrointestinal tract. […] The enzyme (α-glucosidase from Saccharomyces cerevisiae, Sigma-Aldrich, St. Louis, MO, USA, 1.0 U/mL) in phosphate-buffered saline was incubated with various concentrations of test compounds at 37 °C for 15 min. All the studied substances were dissolved in 40% DMSO. Then, 5 mM p-nitrophenyl α-d-glucopyranoside was added to the mixture as a substrate. The mixture was incubated at […] for 20 min. The absorbance was measured spectrophotometrically at 405 nm. The sample solution was replaced by 40% DMSO as a control. […] All samples were studied in triplets.
Inhibitory activity was expressed as a percentage (%) according to the degree of inhibition of α-glucosidase in comparison with the negative control. It was calculated using the following formula:
Inhibitory activity (%) = (1 − As/Ac) × 100%, where As is the optical density of the test compound, and Ac is the optical density of control.
The IC50 was determined from the graph of enzyme activity changes depending on the sample concentration.
The statistical processing of the results was carried out using the “Excel 2019” program.

[2] = tested on: glucose-6-phosphatase; design: method as in PMID 33304132; conditions: Swiss albino mice, cited from earlier work

T1 sequence (P53341 whole entry): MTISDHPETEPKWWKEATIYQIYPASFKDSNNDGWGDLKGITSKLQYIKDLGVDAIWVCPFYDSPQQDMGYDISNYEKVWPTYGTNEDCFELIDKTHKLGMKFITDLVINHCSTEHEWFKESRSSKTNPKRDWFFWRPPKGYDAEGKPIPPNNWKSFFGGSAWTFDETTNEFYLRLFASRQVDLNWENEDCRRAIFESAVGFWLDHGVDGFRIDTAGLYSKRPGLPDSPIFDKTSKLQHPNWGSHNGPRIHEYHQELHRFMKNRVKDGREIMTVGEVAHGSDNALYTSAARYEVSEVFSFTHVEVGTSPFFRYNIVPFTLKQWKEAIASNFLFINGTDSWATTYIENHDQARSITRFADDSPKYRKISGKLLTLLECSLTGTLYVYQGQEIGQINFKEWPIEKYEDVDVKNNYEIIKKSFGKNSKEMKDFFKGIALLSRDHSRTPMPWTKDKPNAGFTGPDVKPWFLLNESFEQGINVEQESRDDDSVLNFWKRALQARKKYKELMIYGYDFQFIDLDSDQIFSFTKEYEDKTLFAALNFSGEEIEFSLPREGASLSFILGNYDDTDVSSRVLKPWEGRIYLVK

Row | Compound | inhibitory activity against α-glucosidase (in words) [1] | Inhibitory Activity of Test Compounds at a Concentration of 15 mM Against the α-Glucosidase Enzyme (%) [1] | IC50 (mM) [1] | melting point [°C] | inhibition of the enzyme glucose-6-phosphatase ([2]; streptozotocin diabetes) | safety for use in animals [2] | inhibition at 15000 µM [1] [%] | IC50 [1] [mM]
1 | Cc1cc(-c2cccs2)c(NC(=S)NC(=O)c2ccccc2)c(=O)[nH]1 [Compound 11c, N-((6-Methyl-2-oxo-4-(thiophen-2-yl)-1,2-dihydropyridin-3-yl)carbamothioyl)benzamide] | did not show inhibitory activity; also recorded: showed no inhibitory activity | No activity | No activity | 245 to 249 |  |  |  | 
2 | S=C(NC(c1ccccn1)C(Cc1ccccc1)Cc1ccccc1)NC(c1ccccn1)C(Cc1ccccc1)Cc1ccccc1 (stereo not shown) [Compound 4, 1,3-bis(2-benzyl-3-phenyl-1-(pyridine-2-yl)propyl)thiourea] |  |  |  |  | highest inhibition value | without having any toxic or lethal effects |  | 
3 | Cc1cc(C)c(NC(=S)NC(=O)c2ccccc2)c(=O)[nH]1 [Compound 11a, N-((4,6-Dimethyl-2-oxo-1,2-dihydropyridin-3-yl)carbamothioyl)benzamide] | did not show inhibitory activity; also recorded: showed no inhibitory activity | No activity | No activity | 230 to 232 |  |  |  | 
4 | Cc1cc(-c2cccs2)c(NC(=S)Nc2ccccc2)c(=O)[nH]1 [Compound 9c, 1-(6-Methyl-2-oxo-4-(thiophen-2-yl)-1,2-dihydropyridin-3-yl)-3-phenylthiourea] |  |  |  | 145 to 147 |  |  | 41.2 ± 2.5 | 
5 | CC(=O)NC(=S)Nc1c(-c2ccccc2)cc(C)[nH]c1=O [Compound 10b, N-((6-Methyl-2-oxo-4-phenyl-1,2-dihydropyridin-3-yl)carbamothioyl)acetamide] | did not show inhibitory activity; also recorded: showed no inhibitory activity | No activity | No activity | 249 to 251 |  |  |  | 
6 | CC(=O)NC(=S)Nc1c(C)cc(C)[nH]c1=O [Compound 10a, N-((4,6-Dimethyl-2-oxo-1,2-dihydropyridin-3-yl)carbamothioyl)acetamide] | did not show inhibitory activity; also recorded: showed no inhibitory activity | No activity | No activity | 273 to 275 |  |  |  | 
7 | C=CCNC(=S)Nc1c(-c2ccccc2)cc(C)[nH]c1=O [Compound 8b, 1-allyl-3-(6-methyl-2-oxo-4-phenyl-1,2-dihydropyridin-3-yl)thiourea] |  |  |  |  |  |  | 26.9 ± 2.5 | 19.8 ± 2.55
8 | Cc1cc(-c2ccccc2)c(NC(=S)NC(=O)c2ccccc2)c(=O)[nH]1 [Compound 11b, N-[(6-Methyl-2-oxo-4-phenyl-1,2-dihydropyridin-3-yl)carbamothioyl]benzamide] | did not show inhibitory activity; also recorded: showed no inhibitory activity | No activity | No activity | 218 to 220 |  |  |  | 
9 | CC(=O)NC(=S)Nc1c(-c2cccs2)cc(C)[nH]c1=O [Compound 10c, N-((6-Methyl-2-oxo-4-(thiophen-2-yl)-1,2-dihydropyridin-3-yl)carbamothioyl)acetamide] | did not show inhibitory activity; also recorded: showed no inhibitory activity | No activity | No activity | 252 to 254 |  |  |  | 
10 | C=CCNC(=S)Nc1c(C)cc(C)[nH]c1=O [Compound 8a, 1-allyl-3-(4,6-dimethyl-2-oxo-1,2-dihydropyridin-3-yl)thiourea] |  |  |  |  |  |  | 23.3 ± 1.7 | 16.6 ± 1.57
11 | C=CCNC(=S)Nc1c(-c2cccs2)cc(C)[nH]c1=O [Compound 8c, 1-Allyl-3-(6-methyl-2-oxo-4-(thiophen-2-yl)-1,2-dihydropyridin-3-yl)thiourea] | did not show inhibitory activity; also recorded: showed no inhibitory activity | No activity | No activity | 289 to 292 |  |  |  | 
12 | Cc1cc(C)c(NC(=S)Nc2ccccc2)c(=O)[nH]1 [Compound 9a, 1-(4,6-Dimethyl-2-oxo-1,2-dihydropyridin-3-yl)-3-phenylthiourea] |  |  |  | 140 to 143 |  |  | 56.6 ± 2.2 | 9.77 ± 0.83
13 | Cc1cc(-c2ccccc2)c(NC(=S)Nc2ccccc2)c(=O)[nH]1 [Compound 9b, 1-(6-Methyl-2-oxo-4-phenyl-1,2-dihydropyridin-3-yl)-3-phenylthiourea] |  |  |  | 141 to 144 |  |  | 35.2 ± 3.4 | 21.8 ± 2.65
14 | C[C@H]1O[C@H](O[C@H]2[C@H](O)[C@@H](O)[C@@H](O[C@H]3[C@H](O)[C@@H](O)C(O)O[C@@H]3CO)O[C@@H]2CO)[C@H](O)[C@@H](O)[C@@H]1N[C@H]1C=C(CO)[C@@H](O)[C@H](O)[C@H]1O (stereo partly shown) [Acarbose, reference compound] |  |  |  |  |  |  | 46.1 ± 4.6 | 
